ChEMBL document CHEMBL1147513, “Sensitivity of neuronal nicotinic acetylcholine receptors to the opiate antagonists naltrexone and naloxone: receptor blockade and up-regulation” (Bioorg Med Chem Lett, 2004)

How the values were obtained:
HEK293 [1] = test: Decay-time constant of ACh ([…])-evoked currents in the presence of 0.1 uM naltrexone in HEK293 cells; type: functional, Homo sapiens
HEK293 [2] = test: Decay-time constant of ACh ([…])-evoked currents in the presence of 0.3 uM naltrexone in HEK293 cells; type: functional, Homo sapiens
HEK293 [3] = test: Decay-time constant of ACh ([…])-evoked currents in the presence of 1 uM naltrexone in HEK293 cells; type: functional, Homo sapiens
HEK293 [4] = test: Decay-time constant of ACh ([…])-evoked currents in the presence of 10 uM naltrexone in HEK293 cells; type: functional, Homo sapiens
HEK293 [5] = test: Decay-time constant of ACh ([…])-evoked currents in the presence of 100 uM naltrexone in HEK293 cells; type: functional, Homo sapiens
HEK293 [6] = test: Decay-time constant of ACh ([…])-evoked currents in the presence of 30 uM naltrexone in HEK293 cells; type: functional, Homo sapiens
HEK293 [7] = test: Decay-time constant of ACh ([…])-evoked currents in the presence of 300 uM naltrexone in HEK293 cells; type: functional, Homo sapiens
HEK293 [8] = test: Decay-time constant of ACh (100 uM) -evoked currents in the absence of naltrexone in HEK293 cells; type: functional, Homo sapiens
HEK293 [9] = test: Decay-time constant of ACh ([…])-evoked currents in the presence of 3 uM naltrexone in HEK293 cells; type: functional, Homo sapiens
[10] = Increase in the charge carried by ACh- induced currents in CA1 pyramidal neurons of […] cultures by naltrexone (0.3 uM); type: functional, Pyramidal neuron
[11] = Increase in the charge carried by choline- induced currents in CA1 pyramidal neurons of […] cultures by naltrexone (0.3 uM); type: functional, Pyramidal neuron
[12] = Increase in the charge carried by ACh- induced currents in […] organotypic hippocampal cultures by naltrexone (0.3 uM); type: functional, Hippocampus
[13] = Increase in the charge carried by choline- induced currents in […] organotypic hippocampal cultures by naltrexone (0.3 uM); type: functional, Hippocampus
[14] = biological target: T1, Neuronal acetylcholine receptor subunit alpha-7 (Homo sapiens, UniProt P36544); test: Blockage of Nicotinic acetylcholine receptor alpha-7 noncompetitively in cultured hippocampal neurons; type: tissue-based, Hippocampus
[15] = biological target: T1, Neuronal acetylcholine receptor subunit alpha-7; test: Blockage of Nicotinic acetylcholine receptor alpha-7 noncompetitively in hippocampal primary cultures; type: tissue-based, Hippocampus
[16] = biological target: T2, Neuronal acetylcholine receptor subunit alpha-4 (Rattus norvegicus, UniProt P09483); test: Blockage of Nicotinic acetylcholine receptor alpha4-beta2 noncompetitively in CA1 stratum radiatum interneurons
[17] = biological target: T2, Neuronal acetylcholine receptor subunit alpha-4; test: Blockage of Nicotinic acetylcholine receptor alpha4-beta2 noncompetitively in acute hippocampal slices; type: tissue-based, Hippocampus
[18] = biological target: T2, Neuronal acetylcholine receptor subunit alpha-4; test: Blockage of Nicotinic acetylcholine receptor alpha4-beta2 noncompetitively in cultured hippocampal neurons; type: tissue-based, Hippocampus

T2 sequence (P09483 whole entry): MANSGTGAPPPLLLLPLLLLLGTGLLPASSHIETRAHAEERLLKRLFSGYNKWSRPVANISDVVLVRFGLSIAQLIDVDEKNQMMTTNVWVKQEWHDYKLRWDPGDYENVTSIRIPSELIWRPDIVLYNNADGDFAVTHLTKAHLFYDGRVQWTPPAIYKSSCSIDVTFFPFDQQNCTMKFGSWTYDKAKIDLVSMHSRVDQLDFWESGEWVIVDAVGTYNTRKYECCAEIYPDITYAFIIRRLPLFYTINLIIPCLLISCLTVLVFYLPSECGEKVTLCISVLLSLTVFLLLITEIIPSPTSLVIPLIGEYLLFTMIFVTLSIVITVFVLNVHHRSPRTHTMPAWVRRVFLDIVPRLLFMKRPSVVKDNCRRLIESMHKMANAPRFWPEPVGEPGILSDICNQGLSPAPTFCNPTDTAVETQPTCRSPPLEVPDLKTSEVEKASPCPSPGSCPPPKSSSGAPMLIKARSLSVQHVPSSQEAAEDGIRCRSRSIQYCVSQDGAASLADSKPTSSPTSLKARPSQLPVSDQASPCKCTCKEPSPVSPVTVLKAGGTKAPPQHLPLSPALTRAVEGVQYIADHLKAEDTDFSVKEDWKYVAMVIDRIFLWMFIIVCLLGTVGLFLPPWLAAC
T1 sequence (P36544 whole entry): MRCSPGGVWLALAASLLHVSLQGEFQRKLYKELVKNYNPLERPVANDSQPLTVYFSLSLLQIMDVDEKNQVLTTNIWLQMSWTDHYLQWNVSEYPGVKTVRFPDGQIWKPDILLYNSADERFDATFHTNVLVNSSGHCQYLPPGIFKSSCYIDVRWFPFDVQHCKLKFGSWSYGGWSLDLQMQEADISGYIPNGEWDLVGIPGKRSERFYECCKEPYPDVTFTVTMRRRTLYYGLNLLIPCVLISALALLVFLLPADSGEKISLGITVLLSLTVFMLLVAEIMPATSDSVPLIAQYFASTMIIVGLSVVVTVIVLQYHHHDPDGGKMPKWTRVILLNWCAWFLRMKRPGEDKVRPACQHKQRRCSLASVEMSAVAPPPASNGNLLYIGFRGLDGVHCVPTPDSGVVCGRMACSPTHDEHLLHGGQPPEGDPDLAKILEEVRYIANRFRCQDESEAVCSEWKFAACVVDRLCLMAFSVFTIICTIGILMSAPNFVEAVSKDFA

| Compound | Decay-time constant (HEK293 [1]) [ms] | Decay-time constant (HEK293 [2]) [ms] | Decay-time constant (HEK293 [3]) [ms] | Decay-time constant (HEK293 [4]) [ms] | Decay-time constant (HEK293 [5]) [ms] | Decay-time constant (HEK293 [6]) [ms] | Decay-time constant (HEK293 [7]) [ms] | Decay-time constant (HEK293 [8]) [ms] | Decay-time constant (HEK293 [9]) [ms] | Increase [10] [%] | Increase [11] [%] | Increase [12] [%] | Increase [13] [%] | IC50 [14] [µM] | IC50 [15] [µM] | IC50 [16] [µM] | IC50 [17] [µM] | IC50 [18] [µM] |
| --- | --- | --- | --- | --- | --- | --- | --- | --- | --- | --- | --- | --- | --- | --- | --- | --- | --- | --- |
| CC(=O)OCC[N+](C)(C)C [ACETYLCHOLINE] | 509.96 | 495.98 | 543.11 | 467.84 | 257.74 | 422.02 | 202.53 | 547.88 | 508.74 | – | – | – | – | – | – | – | – | – |
| O=C1CC[C@@]2(O)[C@H]3Cc4ccc(O)c5c4[C@@]2(CCN3CC2CC2)[C@H]1O5 [NALTREXONE] | – | – | – | – | – | – | – | – | – | 169 | 210 | 214 | 283 | 30 | 25 | 141 | 31 | 139 |
